From US7888040B2, “Detection of methamphetamine group drugs” (priority 2004, dated 2011)

What was measured:
[1] = test system: monoclonal anti-methamphetamine antibody; test: Competitive inhibition ELISA (CELIA) on BSA-pseudoephedrine coated wells; type: binding, mouse; conditions: for Detection by the competitive ELISA (in words): summary of Table 1
Experimental: The conjugate was evaluated using ELISA. 96-well microtitre plates (Costar) were coated with BSA-pseudoephedrine (5 :g/ml in 0.05 M sodium carbonate/bicarbonate buffer, pH 9.6, 100 :l/well) overnight at room temperature. […] Two fold dilutions of monoclonal anti-methamphetamine antibody (East coast Biological, USA) in wash buffer containing 10 mg/ml BSA (assay buffer) were added to the wells (100 :l/well) and the plate incubated at room temperature for 30 minutes. The wells were washed 3 times with wash buffer and horseradish peroxidase-labelled goat anti-mouse IgG antibody (product number A-4416, Sigma Co., Poole, England) was added to the wells (1/2000 dilution in assay buffer, 100 :l/well) and incubation continued for a further 30 minutes. […] After 30 minutes incubation, colour development was stopped by the addition of 1 M sulphuric acid (100 :l/well). Colour intensity was measured at 450 nm.
Competitive ELISA was then set up to evaluate the cross-reactivity of various drugs with methamphetamine. […] The designer ecstasy drugs MDMA and MBDB were well detected by this assay.

[2] = test system: gold-labelled mouse anti-methamphetamine antibody; test: Lateral flow immunochromatography test for methamphetamine/ecstasy in spiked oral fluid; conditions: for Lateral flow test result: cut off set at ≧15 ng/ml (+)-methamphetamine; for Lateral flow test result (in words): Table 2, at the concentrations tested
[3] = compound at 10,000 ng/ml, read off (+)-methamphetamine or ecstasy standard curve
[4] = compound at 10,000 ng/ml in spiked saliva
[5] = compound at 15 ng/ml in spiked saliva, Cozart Rapiscan reader

Compound	% Cross-reactivity ([1]; compound at 10,000 ng/ml)	Concentration determined by ELISA [1, 3]	Lateral flow test result [2, 4]	also measured
CN[C@H](C)[C@@H](O)c1ccccc1 [(+)-ephedrine]	0.08%	8.37 ng/mL	negative	
CN(C)CCC(c1ccccc1)c1ccccn1 (stereo not drawn) [Pheniramine]			negative	
(+)-methamphetamine [(+)- methylamphetamine]				Lateral flow test result (in words) [2]: picked up; Lateral flow test result [2, 5]: positive
CNC(C)Cc1ccc2c(c1)OCO2 (stereo not drawn) [MDMA (Ecstasy), 3,4-methylenedioxymethamphetamine]				% Cross-reactivity ([1]; compound at 15 ng/ml): 55.0%; Concentration determined by ELISA ([1]; compound at 15 ng/ml): 8.26 ng/mL; % Cross-reactivity ([1]; compound at 50 ng/ml): 48.1%; Concentration determined by ELISA ([1]; compound at 50 ng/ml): 24.09 ng/mL; % Cross-reactivity ([1]; compound at 100 ng/ml): 53.19%; Concentration determined by ELISA ([1]; compound at 100 ng/ml): 53.19 ng/mL; Detection by the competitive ELISA (in words) [1]: well detected; Lateral flow test result (in words) [2]: picked up; Lateral flow test result ([2]; compound at 30 ng/ml in spiked saliva): positive
CCC(Cc1ccc2c(c1)OCO2)NC (racemic) [MBDB, (+/−)-N-methyl-1-(3,4-methylenedioxyphenyl)-2-butanamine]				% Cross-reactivity ([1]; compound at 25 ng/ml): 75.04%; Concentration determined by ELISA ([1]; compound at 25 ng/ml): 18.76 ng/mL; % Cross-reactivity ([1]; compound at 100 ng/ml): 66.43%; Concentration determined by ELISA ([1]; compound at 100 ng/ml): 66.43 ng/mL; % Cross-reactivity ([1]; compound at 500 ng/ml): 87.78%; Concentration determined by ELISA ([1]; compound at 500 ng/ml): 438.88 ng/mL; Detection by the competitive ELISA (in words) [1]: well detected; Lateral flow test result (in words) [2]: picked up; Lateral flow test result [2, 5]: positive
CCNC(C)Cc1cccc(C(F)(F)F)c1 (stereo not drawn) [Fenfluramine]			negative	
(−)-pseudoephedrine	0.048%	4.84 ng/mL	negative	
CNC1(c2ccccc2Cl)CCCCC1=O (stereo not drawn) [Ketamine]			negative	
CC(C)(N)Cc1ccccc1 [phentermine]				% Cross-reactivity ([1]; compound at 50,000 ng/ml): 0.009%; Concentration determined by ELISA ([1]; compound at 50,000 ng/ml): 4.67 ng/mL
NCCc1ccc(O)cc1 [tyramine, 4-hydroxy-phenethylamine]	0.03%	3.72 ng/mL	negative	
CN(C)CCC(c1ccc(Cl)cc1)c1ccccn1 (stereo not drawn) [Chlorpheniramine]			negative	
CC(N)Cc1ccc2c(c1)OCO2 (stereo not drawn) [MDA, 3,4-methylenedioxyamphetamine]	0.219%	21.94 ng/mL	negative	
NCCc1ccccc1 [beta-phenylethylamine]	0.25%	25.6 ng/mL	negative	
(+)-pseudoephedrine	0.063%	6.3 ng/mL	negative	
CC(N)C(O)c1ccccc1 (stereo not drawn) [phenylpropanolamine]	0.06%	5.8 ng/mL	negative	
CN[C@@H](C)[C@H](O)c1ccccc1 [(−)-ephedrine]	0.05%	5.05 ng/mL	negative	
CC(N)Cc1ccccc1 (single isomer, unassigned; (+)) [(+)-amphetamine]	0.379%	37.97 ng/mL	negative	% Cross-reactivity ([1]; compound at 10,000 ng/ml, listed as amphetamine): < 0.4%
